Laboratory results: US6331528A, “Method for treatment in gene therapy and use of guanine derivative therefor” (priority 2000, dated 2001)
Converted amounts (≈) assume the structure as drawn.

Assays:
[1] = test system: RERF-LC-MA/LZRNL cell; assay: Cellular toxicity in control cell with no insertion of HSV-1 thymidine kinase gene (MTT); format: cell-based; settings: Homo sapiens, 96 h, control RERF-LC-MA/LZRNL cell without HSV-1 thymidine kinase gene, 4 days
Method: (§1) The cellular toxicities of the quanine derivative for use in accordance with the invention (the compound in the free form represented by the structural formula 1), ganciclovir and aciclovir (Comparative Example 1 and 1') against HSV-1 thymidine kinase gene-introduced cells were tested.
(§2) Human lung small cell carcinoma-derived RERF-LC-MA cell was infected with a viral vector prepared by inserting the thymidine kinase gene in a vector derived from Molony mouse leukemia virus. The resulting RERF-LC-MA/LTRNL cell was used. Furthermore, RERF-LC-MA/LZRNL cell with no insertion of any HSV-1 thymidine kinase gene was used as a control cell. The method for preparing these cells and the assay of the cellular toxicities were according to the method reported by Hasegawa et al. [see Hasegawa Y. et al., Am. J. Respir. Cell Mol. Biol. 8 (6) (1993) p. 655-661]. Based on the assay method of cellular toxicity, the cellular toxicities were confirmed by a calorimetric assay method using MTT [3-(4,5-dimethylthiazol-2-yl)-2,5-diphenyl-tetrazolium bromide].
(§3) The RERF-LC-MA/LTPNL cell suspension was diluted with a culture medium (E-MEM, 10% FBS) and inoculated at 2×10^3 cells/well in a 96-well plate. Then, the pharmaceutical component (guanine derivative) for use in accordance with the invention, ganciclovir and aciclovir were added at various concentrations to these wells. Subsequently, the cellular toxicities were assayed and confirmed by a calorimetric assay humid atmosphere for 4 days and using MTT on day 4.

[2] = test system: mouse granulocyte macrophage precursor cell (CFU-GM); assay: Effect on the inhibition of the growth of mouse granulocyte macrophage precursor cell (CFU-GM); format: cell-based, mouse C57BL/6N Crj; settings: for IC50: CFU-GM, 168 h, mouse femur bone marrow cells, 4×10^4 cells/ml, mouse interleukin-3, 7 days, 37° C., read-out: IC50 (inhibition of CFU-GM colony formation)
Method: The effects of the guanine derivative for use in accordance with the invention (the free form of the compound represented by the structural formula 1), ganciclovir and aciclovir (Comparative Examples 2 and 2') on the inhibition of the growth of mouse granulocyte macrophage precursor cell (CFU-GM) were tested. The mouse granulocyte macrophage precursor cell of Okano et al. [see Okano A. et al., Transplantation 48 (1989) p. 495-498]. The effects on the inhibition of the growth of CFU-GM were assayed as follows. From the femur bone marrow of mouse C57BL/6N Crj females of age 10 weeks was prepared bone marrow cell, which was then inoculated at a concentration of 4×10^4 cells/ml in a semi-solid culture medium with addition of various concentrations of the guanine derivative, ganciclovir and aciclovir (Iscove's modified Dulbecco's medium, 0.8% carboxymethyl cellulose, 20% FBS, 200 units/ml mouse interleukin-3). The cell was cultured in 37° C. in 5% CO2 in a wet atmosphere on a 35-mm plate for 7 days. The emerging CFU-GM colonies were counted with a differential microscope.

[3] = test system: RERF-LC-MA/LTRNL cell; assay: Cellular toxicity in HSV-1 thymidine kinase gene-introduced cell (MTT); format: cell-based, Human; settings: versus ganciclovir and aciclovir
Method: as §1, §2
as §3, with “Subsequently, the cellular toxicities were assayed and confirmed by a calorimetric assay humid atmosphere for 4 days and using MTT on day 4.” left out

[4] = background statement; cited from earlier work

Row | SMILES | IC50 [1] [µg/mL] | IC50 [2] [µg/mL] | cellular toxicity effect compared with the conventional products [3] | bone marrow toxicity compared with ganciclovir and aciclovir ([2]; inferred from CFU-GM colony IC50) | therapeutic effect [4]
1 | Nc1nc(O)c2ncn(COC(CO)CO)c2n1 [ganciclovir] | ≥ 201 | 18 (≈ 70.5 µM) | – | – | –
2 | Nc1nc2c(ncn2C[C@]2(CO)C[C@H]2CO)c(=O)[nH]1 [guanine derivative, (-)-9-[1'S,2'R-bis(hydroxymethyl)cyclopropan-1'-yl]methylguanine] | ≥ 135 | ≥ 66 | more excellent cellular toxicity effect, compared with the conventional products | possibly weaker than those of ganciclovir and aciclovir | –
3 | Nc1nc2c(ncn2COCCO)c(=O)[nH]1 [aciclovir] | ≥ 250 | 26 (≈ 115 µM) | – | – | extremely poor therapeutic effect
